Measurements: paper PMC9601613, “Development of a Fluorescence Polarization Assay for Multi-Determination of 10 Aminoglycosides in Pork Muscle Sample Based on Ribosomal Protein S12 and Studying Its Recognition Mechanism” (Foods, 2022)

Assays:
[1] = target: T1, RpsL12 (ribosomal protein S12) (Lysinibacillus sphaericus, UniProt B1HMZ3); assay: surface plasmon resonance; type: binding; details: log2-transformed affinity, not an association constant in 1/M; sign as printed; KD itself only in supplement
T1 construct: gene rpsL; isolated ribosomal protein without rRNA; 426 bp gene in pET32a(+), purified from soluble fraction of E. coli BL21
T1 sequence (B1HMZ3 1-139): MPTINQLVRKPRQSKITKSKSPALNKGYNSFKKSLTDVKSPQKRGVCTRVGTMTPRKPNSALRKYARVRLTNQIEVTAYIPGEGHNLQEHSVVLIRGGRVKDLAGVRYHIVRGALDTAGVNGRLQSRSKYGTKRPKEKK
Text: surface plasmon resonance on RpsL12 (ribosomal protein S12)

[2] = target: T1, RpsL12 (ribosomal protein S12); assay: fluorescence polarization competition with tracer STR-FITC; type: binding
Text: fluorescence polarization competition with tracer STR-FITC on RpsL12 (ribosomal protein S12)

[3] = target: T1, RpsL12 (ribosomal protein S12); assay: biochemical; design: surface plasmon resonance, binding kinetics and equilibrium dissociation constant of aminoglycosides to RpsL12; details: for kon: read-out: Ka; for koff: read-out: Kd
Method: The affinities of the RpsL12 for the 10 AGs were determined by using the surface plasmon resonance technique (SPR), and the assay procedures were performed according to our recent report (see Supplementary Materials). During the SPR test, the association constant (Ka), dissociation constant (Kd), and equilibrium dissociation constant (KD = Kd/Ka) for the 10 AGs were determined. Furthermore, the absolute affinity constants (KA=Log2(KD)) for the 10 AGs were also calculated, which were used to conveniently compare their affinities. For confirmation of the molecular docking results, the receptor affinities for the 10 drugs were also determined by SPR. […] The recognition mechanisms of RpsL12 protein for AGs reported in the present study were more comprehensive than the previous report. The recombinant plasmids were synthesized at Sangon Biotech Co., Ltd. (Shanghai, China) by inserting the RpsL12 gene of Lysinibacillus sphaericus (GenBank ID: AHC30887.1) into the express vector pET32a(+). The plasmids containing the express vector pET32a-RpsL12 were transformed into BL21 (D3) for acculturation, and the gene products in the positive colonies were characterized by a polymerase chain reaction and DNA sequencing. Then the RpsL12 was expressed with the same procedures as those described in our recent report (see Supplementary Materials), and the obtained product was analyzed with SDS-PAGE electrophoresis and Western blotting.

SMILES	KA [1]	IC50 [2] [µM]	Kd [3] [µM]	kon [3] [M⁻¹ s⁻¹]	koff [3] [s⁻¹]
NCC[C@H](O)C(=O)N[C@@H]1C[C@H](N)[C@@H](O[C@H]2O[C@H](CN)[C@@H](O)[C@H](O)[C@H]2O)[C@H](O)[C@H]1O[C@H]1O[C@H](CO)[C@@H](O)[C@H](N)[C@H]1O [amikacin]	24.487	0.116	0.0425	1690	7.2e-05
CN[C@@H]1[C@@H](O[C@H]2O[C@H](CO)[C@@H](N)[C@H](O)[C@H]2O)O[C@H]2C[C@@H](N)[C@@H](O[C@H]3[C@H](O)[C@@H](O)[C@H](N)C[C@@H]3N)O[C@@H]2[C@@H]1O [apramycin]				20200	0.000281
CCN[C@@H]1C[C@H](N)[C@@H](O[C@H]2O[C@H](CN)CC[C@H]2N)[C@H](O)[C@H]1O[C@H]1OC[C@](C)(O)[C@H](NC)[C@H]1O [etimicin]	11.358	0.129	381	51.2	0.0195
CNC(C)[C@@H]1CC[C@@H](N)[C@@H](O[C@H]2[C@H](O)[C@@H](O[C@H]3OC[C@](C)(O)[C@H](NC)[C@H]3O)[C@H](N)C[C@@H]2N)O1 (stereo partly drawn) [gentamicin]			4.72	2180	0.0103
CNC[C@@H]1CC[C@@H](N)[C@@H](O[C@H]2[C@H](O)[C@@H](O[C@H]3OC[C@](C)(O)[C@H](NC)[C@H]3O)[C@H](N)C[C@@H]2N)O1 [micronomicin]	14.666	0.137	38.5	141	0.00543
NC[C@@H]1O[C@H](O[C@H]2[C@@H](O)[C@H](O[C@@H]3[C@@H](O)[C@H](N)C[C@H](N)[C@H]3O[C@H]3O[C@H](CN)[C@@H](O)[C@H](O)[C@H]3N)O[C@@H]2CO)[C@H](N)[C@@H](O)[C@@H]1O [neomycin]	25.997	0.0786	0.0149	3150	4.7e-05
CCNC1CC(N)C(OC2OC(CN)=CCC2N)C(O)C1OC1OCC(C)(O)C(NC)C1O (stereo not drawn) [netimicin]				37.1	0.00141
NC[C@@H]1O[C@H](O[C@H]2[C@@H](O)[C@H](O[C@@H]3[C@@H](O)[C@H](N)C[C@H](N)[C@H]3O[C@H]3O[C@H](CO)[C@@H](O)[C@H](O)[C@H]3N)O[C@@H]2CO)[C@H](N)[C@@H](O)[C@@H]1O [paromomycin]	23.851	0.117	0.0661	263000	0.0174
CN[C@@H]1[C@H](O)[C@H](NC)[C@H]2O[C@@]3(O)C(=O)C[C@@H](C)O[C@H]3O[C@@H]2[C@H]1O [spectinomycin]	23.900	0.188	0.0639	211000	0.0135
CN[C@@H]1[C@H](O[C@H]2[C@H](O[C@H]3[C@H](O)[C@@H](O)[C@H](N=C(N)N)[C@@H](O)[C@@H]3N=C(N)N)O[C@@H](C)[C@]2(O)C=O)O[C@@H](CO)[C@H](O)[C@H]1O [streptomycin]	24.670	0.102	0.0375	8200	0.000307
